Assay results published in publication PMC13065029 (PLOS One, 2026).
Where two headings read alike, the source gives them in different places.

T1: Chikungunya virus (CHIKV) nsP2 protease (Chikungunya virus)
T1 chain: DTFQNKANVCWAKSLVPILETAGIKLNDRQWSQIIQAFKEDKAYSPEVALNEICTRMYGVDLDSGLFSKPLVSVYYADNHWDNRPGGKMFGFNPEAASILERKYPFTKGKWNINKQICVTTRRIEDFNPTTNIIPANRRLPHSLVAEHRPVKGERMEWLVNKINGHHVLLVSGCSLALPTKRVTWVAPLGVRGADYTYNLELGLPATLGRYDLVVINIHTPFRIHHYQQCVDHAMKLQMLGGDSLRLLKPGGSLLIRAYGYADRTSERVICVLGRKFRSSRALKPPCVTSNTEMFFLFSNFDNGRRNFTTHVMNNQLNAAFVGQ


Experiments:
CHIKV nsP2^pro [1] = molecular target: T2, CHIKV nsP2^pro (Chikungunya virus, UniProt Q8JUX6); details: ref [18]; cited from earlier work
CHIKV nsP2^pro [2] = molecular target: T2, CHIKV nsP2^pro; details: FRET; ref [18]; read-out: IC₅₀; cited from earlier work
CHIKV nsP2^pro [3] = molecular target: T2, CHIKV nsP2^pro; details: fluorometry; ref [18]; cited from earlier work
CHIKV nsP2^pro [4] = molecular target: T2, CHIKV nsP2^pro; details: MST; ref [67]; cited from earlier work
[5] = tested on: Human alphaherpesvirus 1 (HSV-1); details: cited from earlier work
Yellow Fever virus = details: cited from earlier work
Dengue virus = details: cited from earlier work
[6] = molecular target: T1, Chikungunya virus (CHIKV) nsP2 protease; assay: BLI; details: both partners purified

Row | Molecule | Inhibition Mode (CHIKV nsP2^pro [1]) | IC50 (CHIKV nsP2^pro [2]) [µM] | Kd (CHIKV nsP2^pro [3]) [µM] | other results
1 | COc1ccc([C@@H]2CC(=O)c3c(O)cc(O)cc3O2)cc1O [Hesperetin (HST), Hesperetin] | Noncompetitive | 2.5 ± 0.4 | 31.6 ± 2.5 | –
2 | COc1ccc([C@@H]2CC(=O)c3c(O)cc(O[C@@H]4O[C@H](CO[C@@H]5O[C@@H](C)[C@H](O)[C@@H](O)[C@H]5O)[C@@H](O)[C@H](O)[C@H]4O)cc3O2)cc1O [Hesperidin (HSD), Hesperidin] | Noncompetitive | 7.1 ± 1.1 | 40.7 ± 2 | –
3 | CC1=C(CO)C(=O)O[C@@H]([C@@H](C)[C@H]2CC[C@H]3[C@@H]4C[C@H]5O[C@]56[C@@H](O)C=CC(=O)[C@]6(C)[C@H]4CC[C@]23C)C1 [Withaferin A (WFA), Withaferin A] | – | – | – | Kd (CHIKV nsP2^pro [4]): 64 µM
4 | Mastoparan | – | – | – | antiviral activity [5]: antiviral activity
5 | Phospholipase A2 | – | – | – | antiviral activity (Yellow Fever virus): antiviral activity; antiviral activity (Dengue virus): antiviral activity
6 | GILGKLWEGFKSIV (Stock of 10 mM in DMSO) [pantinin-1] | – | – | – | Kd [6]: 9.29 µM
